# Data reported in the OPERA property sets (Mansouri et al. 2018).
Compound,boiling point,melting point,log10 vapour pressure (mmHg),ready biodegradability,log10 Henry constant (atm·m³/mol),log10 Koa,log10 biodegradation half-life (days),log10 Koc (L/kg)
C=CCCC(C)O (stereo unspecified),139 °C,–,–,–,–,–,–,–
O=C(CCCN1CC=C(n2c(=O)[nH]c3ccccc32)CC1)c1ccc(F)cc1,–,146 °C,–,–,–,–,–,–
CCOC(C)C,54.1 °C,–,–,–,–,–,–,–
CCCCC(CC)CNCC(CC)CCCC (stereo unspecified),281 °C,-60 °C,-2,–,–,–,–,–
COc1ccc(-c2cc(=O)c3c(O)cc(O)cc3o2)cc1O,–,254 °C,–,–,–,–,–,–
O=NN1CCOCC1,225 °C,29 °C,–,–,–,–,–,–
O=C(O)c1ccccc1-c1ccccc1,344 °C,114 °C,–,–,–,–,–,–
C=C(C)C1CC=C(C)CC1 (stereo unspecified),176 °C,-86.4 °C,0.215,readily biodegradable,–,–,–,–
Cc1cc(C(=O)O)ccc1N,–,170 °C,–,–,–,–,–,–
FC(I)I,100 °C,-34.5 °C,–,–,–,–,–,–
CCN(CC)C(=O)C(Cl)(Cl)Cl,–,27 °C,–,–,–,–,–,–
OC1CCCC1C1CCCC1 (stereo unspecified),236 °C,20 °C,–,–,–,–,–,–
COC1=CC=C2[C@H]3Cc4ccc(OC)c5c4[C@@]2(CCN3C)[C@H]1O5,–,193 °C,–,–,–,–,–,–
CC(C)(C)NCCNC(C)(C)C,197 °C,–,-0.575,–,–,–,–,–
C=C=CC,10.9 °C,-136 °C,3.1,–,–,–,–,–
CN1CC[C@]23c4c5ccc(OCc6ccccc6)c4O[C@H]2[C@@H](O)C=C[C@H]3[C@H]1C5,–,132 °C,–,–,–,–,–,–
CCCCCCCCCCCCCCCCCCCCCCCCCCCCCC(=O)O,–,93.6 °C,–,–,–,–,–,–
COc1ccccc1NC(=O)CC(C)=O,–,86 °C,–,–,–,–,–,–
OCCCO,214 °C,-26.7 °C,-1.36,–,–,–,–,–

Compound,boiling point,melting point,log10 vapour pressure (mmHg),ready biodegradability,log10 Henry constant (atm·m³/mol),log10 Koa,log10 biodegradation half-life (days),log10 Koc (L/kg)
CCCCCCCCCCCCCCCCCCOP(OCCCCCCCCCCCCCCCCCC)OCCCCCCCCCCCCCCCCCC,–,–,–,readily biodegradable,–,–,–,–
Cc1ccccc1CC(C)C,196 °C,-73.3 °C,–,–,–,–,–,–
C=CCc1cc(OC)c2c(c1OC)OCO2,294 °C,29.5 °C,–,–,–,–,–,–
Cc1cc2ccccc2oc1=O,292 °C,91 °C,–,–,–,–,–,–
CCCC(=O)OCCOc1ccccc1,251 °C,–,–,–,–,–,–,–
CCO,78.2 °C,-114 °C,1.77,readily biodegradable,-5.3,–,–,–
Cc1cnc2ccccc2c1C,291 °C,73.5 °C,–,–,–,–,–,–
C1CCN(CCN2CCCCC2)CC1,265 °C,-0.5 °C,–,–,–,–,–,–
CCOC(=O)CCN(SN(C)C(=O)Oc1cccc2c1OC(C)(C)C2)C(C)C,–,–,-6.7,–,–,–,–,–
CCCCC(CC)CN (stereo unspecified),169 °C,-76 °C,0.146,–,–,–,–,–
c1ccc2c(-c3cccc4ccccc34)cccc2c1,–,160 °C,–,–,–,–,–,–
CC1(C)O[C@H]2CC(=O)OC[C@]23[C@H]2CC[C@@]4(C)[C@H](c5ccoc5)OC(=O)[C@H]5O[C@]54[C@]2(C)C(=O)C[C@@H]13,–,298 °C,–,–,–,–,–,–
O=C(O)CS(=O)(=O)O,–,85 °C,–,–,–,–,–,–
O=C(Nc1ccc(Cl)cc1C(O)c1ccccc1)c1ccncc1 (stereo unspecified),–,211 °C,–,–,–,–,–,–
C1CCOC1,65 °C,-108 °C,2.21,readily biodegradable,-4.15,2.86,–,–
Cc1ccccc1OC(=O)Oc1ccccc1C,–,60 °C,–,–,–,–,–,–
FC(F)(F)C(F)(Cl)C(F)(F)Cl (stereo unspecified),34.1 °C,–,–,–,–,–,–,–
CCCCCCCCCCCCCCCCCCCCCCCCCCCC,432 °C,64.5 °C,-8.8,readily biodegradable,–,–,2.1,–
Clc1ccc(-c2c(Cl)cc(Cl)c(Cl)c2Cl)cc1Cl,–,107 °C,–,–,–,–,–,–

Compound,boiling point,melting point,log10 vapour pressure (mmHg),ready biodegradability,log10 Henry constant (atm·m³/mol),log10 Koa,log10 biodegradation half-life (days),log10 Koc (L/kg)
CCCCC(C)C(C)O (stereo unspecified),166 °C,–,–,–,–,–,–,–
Oc1c(Br)cc(Br)cc1Br,286 °C,95.5 °C,–,readily biodegradable,–,–,–,–
C=CC(=O)OCC(CC)CCCC (stereo unspecified),214 °C,-90 °C,-0.75,readily biodegradable,–,–,–,–
CCCn1cnc2c1c(=O)n(CCCCC(C)=O)c(=O)n2C,–,69 °C,–,–,–,–,–,–
CC(C)C=CCl,87 °C,–,–,–,–,–,–,–
CCc1cccc(Cl)c1,184 °C,-55 °C,–,–,–,–,–,–
Brc1ccsc1Br,218 °C,-17.5 °C,–,–,–,–,–,–
CC(C)CCCCO,170 °C,–,–,–,–,–,–,–
N#CCN(CC#N)CC#N,–,126 °C,-6.5,–,–,–,–,–
O=C(C=Cc1ccccc1)NCCO,–,101 °C,–,–,–,–,–,–
CC1=CC[C@@H]2CC1OC2(C)C,184 °C,–,–,–,–,–,–,–
OCC(F)(F)C(F)(F)C(F)(F)C(F)(F)C(F)(F)C(F)(F)C(F)(F)C(F)(F)C(F)(F)C(F)F,–,–,–,not readily biodegradable,–,–,–,–
COc1nc(C)nc(N)n1,–,260 °C,–,–,–,–,–,–
Clc1ccc(-c2c(Cl)cc(Cl)cc2Cl)cc1,–,65 °C,–,–,–,–,–,–
CN(C)C(=O)Nc1cccc(C(F)(F)F)c1,–,164 °C,-6.03,–,–,–,–,1.9
COc1ccc(O)c(C(C)(C)C)c1,–,–,–,not readily biodegradable,–,–,–,–
O=C(Nc1ccccc1)Nc1ccccc1,262 °C,239 °C,-5.12,–,–,–,–,–
O=C(O)c1ccccc1,249 °C,122 °C,-3.15,readily biodegradable,–,–,–,1.5
